Results taken from patent US20060167056A1, “Polymorphs of {5-[3-(4,6-Difluoro-1H-benzoimidazol-2-yl)-1H-indazol-5-yl)-4-methyl-pyridin-3-ylmethyl}-ethyl-amine” (AGOURON PHARMACEUTICALS, INC., priority 2004, published 2006).
Entries after “also recorded” stand apart in the source; their conditions may differ.

Key:
Format in all cases: physicochemical
[1] = Stability study at 40° C. at 75% relative humidity (X-ray powder diffraction and DSC, initial vs 6 weeks)
From the text: (§1) The present invention provides several polymorphic crystalline forms of Compound 1. Each crystalline form of the compound can be characterized by one or more of the following: X-ray powder diffraction pattern (i.e., X-ray diffraction peaks at various diffraction angles (2θ)), melting point onset (and onset of dehydration for hydrated forms) as illustrated by endotherms of a differential scanning calorimetry (DSC) thermogram, Raman spectra, thermal gravimetric analysis (TGA), solid state ^13C and ^19F nuclear magnetic resonance (SSNMR) spectrum, aqueous solubility, light stability under International Conference on Harmonization (ICH) high intensity light conditions, and physical and chemical storage stability.
(§2) Polymorph Form A is a meta-stable solvate form of Compound 1. Form A is chemically stable at 40° C. at 75% relative humidty for at least 6 weeks. […] The 6 week DSC thermogram, FIG. 2G, indicates an endotherm onset at 257° C. at a scan rate of 10° C./min.
(§3) Polymorph Form B is physically and chemically stable at 40° C. at 75% relative humidity for at least six weeks.
FIG. 2A is an X-ray powder diffractogram of polymorph Form B of Compound 1. Form B was further characterized by Raman spectra, ^13C solid state NMR, ^19F solid state NMR, DSC profiling and TGA analysis.

[2] = DSC profiling, meta-stability of the polymorphic form; conditions: DSC thermogram
From the text: Different polymorphic forms of Compound 1 were also distinguished using differential scanning calorimetry (DSC). DSC measures the difference in heat energy between a solid sample and an appropriate reference with an increase in temperature. DSC thermograms are characterized by endotherms (indicating energy uptake) and also by exotherms (indicating energy release), typically as the sample is heated. The DSC thermographs were obtained using a TA Instrument DSC Q-1000 instrument at a scan rate of 10° C./min over a temperature range of 25-300° C. Samples were weighed into aluminum crucibles that were sealed and punctured with a single hole. The extrapolated onset of melting temperature and, where applicable, the onset of dehydration/desolvation temperature, were also calculated. […] For any given example, the observed endotherms may also differ from instrument to instrument; however, it will generally be within the ranges defined herein provided the instruments are calibrated similarly.
as §2
FIG. 3A is an X-ray powder diffractogram of polymorph Form C of Compound 1. […]

Aqueous solubility = assay: Aqueous solubility
From the text: as §1, §3

| SMILES | chemically stable, duration [1] | polymorph conversion, initial DSC thermogram vs 6 week DSC thermogram ([1]; 6 weeks, DSC scan rate 10° C./min) | physical stability, initial X-Ray powder diffraction data vs 6 week stability X-ray data ([1]; 6 weeks, XRPD) | stability class of the polymorphic form [2] | solubility (Aqueous solubility; aqueous, aqueous buffer, pH=4, read-out: initial aqueous solubility) | behaviour of the aqueous solution after time (Aqueous solubility; pH=4, after time) |
| --- | --- | --- | --- | --- | --- | --- |
| CCNCc1cncc(-c2ccc3[nH]nc(-c4nc5c(F)cc(F)cc5[nH]4)c3c2)c1C [Form A, {5-[3-(4,6-Difluoro-1H-benzoimidazol-2-yl)-1H-indazol-5-yl]-4-methyl-pyridin-3-ylmethyl}-ethyl-amine] | at least 6 weeks | small conversion of Form A to Form B; also recorded: a small amount of Form A had been converted to Form B | appears to be physically stable | meta-stable | – | – |
| CCNCc1cncc(-c2ccc3[nH]nc(-c4nc5c(F)cc(F)cc5[nH]4)c3c2)c1C [Form B, {5-[3-(4,6-Difluoro-1H-benzoimidazol-2-yl)-1H-indazol-5-yl]-4-methyl-pyridin-3-ylmethyl}-ethyl-amine] | at least six | – | – | – | > 20 mg/mL | the solution has been seen to gel |
| CCNCc1cncc(-c2ccc3[nH]nc(-c4nc5c(F)cc(F)cc5[nH]4)c3c2)c1C [Form C, {5-[3-(4,6-Difluoro-1H-benzoimidazol-2-yl)-1H-indazol-5-yl]-4-methyl-pyridin-3-ylmethyl}-ethyl-amine] | – | – | – | meta-stable | – | – |
